What is called MIC is the lowest concentration found to suppress growth.

Structures are written as SMILES. In brackets after ≈: the same amount, converted by molar mass. Activity calls are given as the source filed them. No cut-off for these calls is given here.

Data on twelve compounds can be found in ChEMBL document CHEMBL3045459 (Med Chem Res, 2013).

Common to all, as to type: functional
For experiment [1], the system named is Bacillus subtilis. Put plainly: Antibacterial activity against Bacillus subtilis assessed as growth inhibition after 24 hr by agar well diffusion method. A general note: In agar diffusion tests the substance spreads into inoculated agar from a disc or well.
The subject of experiment [2] is Aspergillus flavus. Briefly: Antifungal activity against Aspergillus flavus assessed as growth inhibition after 48 hr by broth dilution method. Background: In broth dilution the organism is exposed to a series of concentrations in liquid medium.
In experiment [3] the test system is Staphylococcus aureus. Put plainly: Antibacterial activity against Staphylococcus aureus assessed as growth inhibition after 24 hr by agar well diffusion method.
In experiment [4] the test system is Shigella flexneri. Put plainly: Antibacterial activity against Shigella flexneri assessed as growth inhibition after 24 hr by agar well diffusion method.
Experiment [5] deals with Escherichia coli. Put plainly: Antibacterial activity against Escherichia coli assessed as growth inhibition after 24 hr by agar well diffusion method.
Experiment [6] relates to Pseudomonas aeruginosa. Put plainly: Antibacterial activity against Pseudomonas aeruginosa assessed as growth inhibition after 24 hr by agar well diffusion method.
The test system of experiment [7] is Aspergillus fumigatus. Put plainly: Antifungal activity against Aspergillus fumigatus assessed as growth inhibition after 48 hr by broth dilution method.
Experiment [8] deals with Alternaria alternata. Put plainly: Antifungal activity against Alternaria alternata assessed as growth inhibition after 48 hr by broth dilution method.
The subject of experiment [9] is Salmonella typhi. Put plainly: Antibacterial activity against Salmonella enterica subsp. enterica serovar Typhi assessed as growth inhibition after 24 hr by agar well diffusion method.

In the case of `Nc1nc(-c2ccc(Br)cc2)cc(-c2ccc(-n3ccnc3)cc2)n1`, the “diameter of the inhibition zone (DIZ)” value in experiment [1] was 13 mm; in experiment [3], 12 mm; in experiment [4], 12 mm; in [5] it was 12 mm. Further, the MIC was 1000 µg/mL (≈ 2550 µM) in [2], 1000 µg/mL (≈ 2550 µM) in experiment [7] and more than 1000 µg/mL in experiment [8]. In addition, the “growth inhibition (GI)” value in [6] and in experiment [9] was “inactive” in each case.

On to `Nc1nc(-c2ccc(-n3ccnc3)cc2)cc(-c2cc(Cl)ccc2Cl)n1`, for which the “diameter of the inhibition zone (DIZ)” value in experiment [1], in experiment [4] and in experiment [5] was 12 mm in each case. In addition, the MIC in experiment [2], in experiment [7] and in experiment [8] was more than 1000 µg/mL each time. The “growth inhibition (GI)” value in experiment [3], in [6] and in [9] was “inactive” in each case.

In the case of `Nc1nc(-c2ccc(I)cc2)cc(-c2ccc(-n3ccnc3)cc2)n1`, the figures for the “diameter of the inhibition zone (DIZ)” value in experiment [1], in experiment [3] and in [5] were 21 mm, 16 mm and 20 mm, respectively. In addition, the minimum inhibitory concentration (MIC) in experiment [2], in experiment [7] and in [8] was 1000 µg/mL (≈ 2280 µM) in each case. Moreover, the “growth inhibition (GI)” value in [4], in experiment [6] and in experiment [9] was “inactive” in each case.

Consider `COc1cc(-c2cc(-c3ccc(-n4ccnc4)cc3)nc(N)n2)ccc1OO`, for which the “growth inhibition (GI)” value in [1], in experiment [4] and in [9] was “inactive” in each case. The results for the MIC in experiment [2], in experiment [7] and in experiment [8] were 1000 µg/mL (≈ 2660 µM), more than 1000 µg/mL and more than 1000 µg/mL, respectively. In addition, the entries for the “diameter of the inhibition zone (DIZ)” value in experiment [3], in experiment [5] and in experiment [6] were 13 mm, 15 mm and 10 mm, respectively.

Turning to `Nc1nc(-c2ccc(-n3ccnc3)cc2)cc(-c2ccc(Cl)c(Cl)c2Cl)n1`, the “diameter of the inhibition zone (DIZ)” value is listed as 15 mm in experiment [1], 15 mm in [3], 11 mm in experiment [4] and 18 mm in [5]. Besides, the MIC in experiment [2], in experiment [7] and in experiment [8] was more than 1000 µg/mL in each case. The “growth inhibition (GI)” value in [6] and in [9] was “inactive” each time.

Take `C[C@@H](O)[C@H]1C(=O)N2C(C(=O)O)=C(SCCNC=N)C[C@H]12` [IMIPENEM ANHYDROUS]: the “diameter of the inhibition zone (DIZ)” value in [1] stood at 30 mm; in experiment [3] it was 30 mm; in experiment [4] it was 30 mm; in experiment [5], 35 mm; in experiment [6] it was 31 mm; in [9], 25 mm.

With `Nc1nc(-c2ccc(Cl)cc2)cc(-c2ccc(-n3ccnc3)cc2)n1`, the entries for the “diameter of the inhibition zone (DIZ)” value in [1], in experiment [4] and in [5] were 12 mm, 11 mm and 18 mm, respectively. In addition, the MIC in experiment [2], in experiment [7] and in experiment [8] was 1000 µg/mL (≈ 2880 µM) each time. In addition, the “growth inhibition (GI)” value in experiment [3], in experiment [6] and in experiment [9] was “inactive” each time.

In the case of `COc1cccc(-c2cc(-c3ccc(-n4ccnc4)cc3)nc(N)n2)c1`, the “growth inhibition (GI)” value in experiment [1], in experiment [4] and in experiment [9] was “inactive” throughout. For the same compound, the results for the MIC in experiment [2], in [7] and in [8] were 1000 µg/mL (≈ 2910 µM), more than 1000 µg/mL and 1000 µg/mL (≈ 2910 µM), respectively. Further, the “diameter of the inhibition zone (DIZ)” value is on record as 14 mm in [3], 13 mm in [5] and 12 mm in [6].

As to `Nc1nc(-c2ccccc2)cc(-c2ccc(-n3ccnc3)cc2)n1`, the “diameter of the inhibition zone (DIZ)” value in [1] was 13 mm; in experiment [5], 11 mm. In addition, the MIC in experiment [2] was 1000 µg/mL (≈ 3190 µM); in [7], 1000 µg/mL (≈ 3190 µM); in experiment [8], more than 1000 µg/mL. Moreover, the “growth inhibition (GI)” value in experiment [3], in [4], in [6] and in experiment [9] was “inactive” each time.

With `Nc1nc(-c2ccc(F)cc2)cc(-c2ccc(-n3ccnc3)cc2)n1`, the “growth inhibition (GI)” value in [1], in experiment [3], in experiment [6] and in experiment [9] was “inactive” throughout. Also, the MIC is 1000 µg/mL (≈ 3020 µM) in experiment [2], 500 µg/mL (≈ 1510 µM) in experiment [7] and 1000 µg/mL (≈ 3020 µM) in experiment [8]. Moreover, the “diameter of the inhibition zone (DIZ)” value amounted to 12 mm in experiment [4] and 16 mm in [5].

Consider `COc1ccc(-c2cc(-c3ccc(-n4ccnc4)cc3)nc(N)n2)cc1`, for which the “diameter of the inhibition zone (DIZ)” value in experiment [1] was 14 mm; in experiment [4], 11 mm; in [5] it was 12 mm; in experiment [6], 11 mm. The MIC is more than 1000 µg/mL in experiment [2], 1000 µg/mL (≈ 2910 µM) in experiment [7] and more than 1000 µg/mL in experiment [8]. The “growth inhibition (GI)” value in experiment [3] and in [9] was “inactive” each time.

For the compound `Nc1nc(-c2ccc(-n3ccnc3)cc2)cc(-c2ccc(Cl)cc2Cl)n1`, the “growth inhibition (GI)” value in [1], in [6] and in [9] was “inactive” in each case. Besides, the MIC in [2] was more than 1000 µg/mL; in experiment [7] it was more than 1000 µg/mL; in experiment [8] it was 1000 µg/mL (≈ 2620 µM). For the same compound, the “diameter of the inhibition zone (DIZ)” value in [3] worked out at 11 mm; in experiment [4], 10 mm; in [5], 14 mm.
